Measured values from patent US12616697B2, “Methods of treatment with myosin modulator” (MyoKardia, Inc., priority 2020, dated 2026).

Columns and labels:
[1] = system: participants with symptomatic oHCM; test: EXPLORER-HCM Phase 3 double blind, randomized, placebo controlled study; assay type: in vivo, human
Excerpt: A subset of participants consented to participate in a CMR substudy at selected sites. Randomization was stratified according to NYHA functional classification (II or III), current treatment with β-blocker (yes or no), planned type of ergometer used during the study (treadmill or exercise bicycle), and consent for the CMR substudy (yes or no).
1) Screening period (Day −35 to Day −1): Participants will undergo a variety of general, cardiopulmonary, laboratory, symptom, and PRO assessments over 1 to 2 days in order to assess eligibility. Key Screening tests include electrocardiogram (ECG); transthoracic echocardiography (TTE) conducted at rest, with Valsalva maneuver, and post-exercise; as well as cardiopulmonary exercise testing (CPET). The following screening assessments may be repeated, as long as within the 35-days screening window: blood tests, ECG, and/or TTE. Repeat assessments are allowed if central core labs require a repeat submission due to quality and in order to better assess inclusion/exclusion values. Participants who screen fail may be considered for rescreening based on the investigator's discretion, taking into consideration the reason(s) for screen fail. One attempt at rescreening will be allowed, and all procedures must be repeated.
2) Double-blind treatment period (Day 1 [randomization] to Week 30/end of treatment [EOT]): The double-blind treatment period will include a two-step dose titration scheme designed to achieve safe and effective dosing for each participant based on their own response parameters. […] Subsequently, assessments including ECG, PK (trough plasma concentrations), and TTE will be performed at each of 7 study visits, beginning at Week 4, and read by core laboratories. At Week 8 and Week 14, the dose may be increased, decreased, or remain unchanged based upon results of Week 6 and Week 12 assessments, respectively, and based primarily on measurements of provoked left ventricular outflow tract (LVOT) gradient and bounded by a target plasma concentration (PK) range and clinical tolerability (LVEF). At Week 8, the dose may be increased to a maximum daily dose of 10 mg (ie, increase from 5 mg QD to 10 mg QD), and at Week 14 to a maximum daily dose of 15 mg (ie, increase from 10 mg QD to 15 mg QD). Dose increases are designed to be step wise and are not allowed to skip doses (eg, from 5 mg to 15 mg).
At Week 30/EOT, participants will complete CPET and post-exercise TTE. For any participants permanently discontinuing treatment prior to Week 30, an early termination (ET) visit should be conducted as soon as possible, including CPET and post-exercise TTE. Participants with ET will also be encouraged to complete all remaining study visits and assessments, including the Week 30 visit.
3) Posttreatment follow-up period (Week 30/EOT to Week 38/end of study [EOS]): When double-blind treatment ends at Week 30, participants will be contacted by phone at Week 34 and return to the site at Week 38 for an EOS visit. At the EOS visit, specified assessments will be repeated. This posttreatment follow-up period applies only to participants who are receiving study drug after Week 22.
To maintain safety throughout the double-blind treatment period, a clinic visit will occur every 2 to 4 weeks, beginning at Week 4 for an initial evaluation of clinical tolerability and safety. Clinic visits will include but are not limited to clinical evaluation (symptoms, PRO evaluations, adverse event [AE]/serious adverse event [SAE] assessment), ECGs, PK sample, TTEs, and laboratory assessments. Results of TTE performed by study site sonographers at each scheduled visit following randomization should be kept blinded to the investigator and other study site personnel. An exception may occur if left ventricular ejection fraction (LVEF)≤30% is measured at the site, then the investigator will be immediately notified and study drug will be permanently discontinued as described within the protocol. […]

[2] = system: Yucatan mini-pigs with a heterozygous MYH7 R403Q mutation; test: Chronic MYK-581 in mini-pig genetic model of non-obstructed HCM (cMR imaging, invasive hemodynamics, dobutamine challenge); assay type: in vivo; details: corrected for plasma protein binding and potency differences MYK-581 vs mavacamten
Description: The mini-pigs were treated for at least 12 weeks and were evaluated as shown in Schematic 1 below. […] After ˜14 weeks of treatment, all pigs underwent in vivo cMR imaging for the assessment of LV function and geometry, as well as of myocardial composition via of Late Gadolinium Enhancement (LGE) and T1 mapping techniques including extracellular volume (ECV) assessments. In addition, a subset of animals (MYK: n=6, CTRL: n=5) also underwent terminal invasive hemodynamics assessments, including cardiac output (CO, via thermodilution), load-independent systolic/diastolic function (via LV pressure-volume relationships), and β-adrenergic (β-AR) cardiac reserve (via dobutamine at 5 ug/kg/min IV).
The mini-pig model can be obtained following the method disclosed in a presentation entitled “A Minipig Genetic Model of Hypertrophic Cardiomyopathy Uncovers the Pathophysiological Mechanisms of Disease Evolution”, by E. Green et al., at University of Iowa, Carver College of Medicine.

## CC(C)n1c(=O)cc(N[C@@H](C)c2ccccc2)[nH]c1=O [mavacamten, (S)-3-Isopropyl-6-((1-phenylethyl)amino)pyrimidine-2, 4(1H,3H)-dione]
[1]; Type 1 - pVO2 ≥1.5 ml/kg/min and NYHA improved ≥1, mavacamten group (n = 123)
  Response Type 1, n (%): 41 (33.3) n (%)
[1]; Type 2 - pVO2 ≥3.0 ml/kg/min and no worsening NYHA, mavacamten group (n = 123)
  Response Type 2, n (%): 29 (23.6) n (%)
[1]; difference, mavacamten (n = 123) vs placebo (n = 128)
  Met Composite Functional Response, either type: Mavacamten vs Placebo: 19.4%
[1]; in vivo
  participants with temporary discontinuation associated with reduced ejection fraction: 3
  patients who achieved a complete response (NYHA 1 and all LVOT gradients below 30 mmHg): 27%
  patients who achieved a post-exercise LVOT peak gradient below 30 mmHg: 57%
  subjects with severe TEAEs, %: 5.7%
[1]; patients not receiving β blocker(s)
  Rates of improvement by at least one NYHA class: 65%
[1]; patients not receiving β blocker(s) (n=29)
  difference vs placebo in percent of patients that met the primary endpoint: 52.6%
[1]; patients receiving β blocker(s)
  Rates of improvement by at least one NYHA class: 65%
[1]; patients receiving β blocker(s) (n=94)
  difference vs placebo in percent of patients that met the primary endpoint: 8.7%
[1]; placebo 21%
  patients who achieved NYHA class I status: 65%
[1]; through week 30
  subjects who experienced SAEs, %: 8.1%
[1]; vs placebo
  Absence of MR (mitral regurgitation), Mava vs Placebo Difference (95% CI): 9.0 (3.7, 14.3) %
[1]; week 30, non-β blocker subgroup
  VE/CO2 slope change from baseline: −2.5
[1]; week 30, those not using β blocker(s)
  mean change in pVO2: 2.2 mL/kg/min
[1]; week 30, β blocker subgroup
  VE/CO2 slope change from baseline: −2.5
  mean change in pVO2: 1.1 mL/kg/min
[2]
  equivalent human plasma concentrations: 50 to 250 ng/mL
